According to patent US4112076A, “Epi-daunomycin and epi-adriamycin compounds and method of use” (priority 1975, dated 1978):
Converted amounts (≈) assume the structure as drawn. “Also recorded” adds a separate entry of the source. Read-outs that look alike come from different tables or passages of the source.

Experiments:
[1] = system: Hela cells; experiment: Cloning efficiency of Hela cells in vitro (colony inhibition); type: cell-based; settings: Homo sapiens
Description: After treatment for 2, 8 and 24 hours, Hela cells were seeded (200 cells per plate) and the number of colonies determined 8 days later. The inhibiting dose (ID50) represents the does which produces a 50% inhibition of colonies.
^a cloning efficiency of Hela cells

[2] = system: Moloney Sarcoma Virus (MSV); experiment: Formation of foci by Moloney Sarcoma Virus (MSV) in vitro (antiviral action); type: cell-based; settings: Fibroblast, 72 h
Description: (§1) The test compound was evaluated on mouse embryo fibroblast (MEF) cultures infected with MSV and on similar uninfected cultures. After a treatment of three days the inhibiting doses (ID50) were evaluated on cell proliferation in uninfected cultures (cytotoxic action) and on MSV foci formation in infected cultures (antiviral action).
^b inhibition of MSV foci formation

[3] = Proliferation of uninfected mouse embryo fibroblast (MEF) cultures (cytotoxic action); type: cell-based; settings: mouse, mouse embryo fibroblasts
Description: as §1
^c inhibition of mouse embryo fibroblasts proliferation

[4] = system: L 1210 leukemia; experiment: Ascitic leukemia L 1210, treatment i.p. on day 1; type: in vivo, mouse
Source text: (§2) Activity of 4-demethoxy-4'-epi-adriamycin on
(§3) ascitic leukemias. Treatment i.p. on day 1.
(§4) ^a Median survival time, % over untreated controls
(§5) ^b Long term survivors at 60 days

[5] = system: P 388 leukemia; experiment: Ascitic leukemia P 388, treatment i.p. on day 1; type: in vivo, mouse
Source text: as §2, §3, §4, §5

[6] = system: solid sarcoma 180; experiment: Solid sarcoma 180, treatment i.v. on days 1 to 5; type: in vivo, mouse
Source text: as §2
solid sarcoma 180. Treatment i.v. on days 1 to 5.
Average data of 2 experiments.
^a Tumor weight on day 11, % over untreated controls.

[7] = system: Gross leukemia; experiment: Gross leukemia, treatment i.v. on days 1 to 3; type: in vivo, mouse
Source text: On Gross leukemia (which is a systemic tumor transplanted i.v.), the increase in the life span of mice treated with the two compounds at equitoxic doses was similar.
Activity of 4-demethoxy-4'-epi-adriamycin
on Gross leukemia. Treatment i.v. on days
Average data of 2 experiments^a.
^a See legends to Table 7.

[8] = system: several in vitro systems; experiment: Several in vitro systems, comparison with adriamycin; type: cell-based; settings: Table 6
Description: (§6) The above compound was tested in comparison with adriamycin in several in vitro systems and experimental mouse tumors.

[9] = system: experimental mouse tumors; experiment: Experimental mouse tumors (overall); type: in vivo; settings: compared with adriamycin
Description: (§7) The test was carried out on groups of 10 mice (Swiss CD1). The compound under examination was administered intraperitoneally in varying doses to the test animals one day after intraperitoneal inoculation with 1×10^6 tumor cells/mouse.
as §6

[10] = system: Ascites Sarcoma 180; experiment: Ascites Sarcoma 180 in Swiss CD1 mice, i.p.; type: in vivo, mouse (Swiss CD1); settings: 4.5 ng/Kg (so in the source), i.p. one day after inoculation
Description: as §7, with “In Table 5 the activity of 3'-4'-epi-6'-hydroxyadriamycin on Ascites Sarcoma 180 in mice is reported. The test” for “The test”
The average survival time is given as percentage of the survival time of untreated animals, which is arbitrarily designated as 100%. The number of long term survivors (LTS) is also reported.

[11] = read-out: ID50, inhibition of MSV foci formation

C[C@@H]1O[C@@H](O[C@H]2C[C@](O)(C(=O)CO)Cc3c(O)c4c(c(O)c32)C(=O)c2ccccc2C4=O)C[C@H](N)[C@H]1O [4-demethoxy-4'-epi-adriamycin]
IC50 ([1]; 2 (hours) treatment, Table 6, read-out: ID50, cloning efficiency of Hela cells): 0.35 ng/mL (≈ 0.682 nM) | IC50 ([1]; 8 (hours) treatment, Table 6, read-out: ID50, cloning efficiency of Hela cells): 0.1 ng/mL (≈ 0.195 nM) | IC50 ([1]; 24 (hours) treatment, Table 6, read-out: ID50, cloning efficiency of Hela cells): 0.03 ng/mL (≈ 0.0584 nM) | IC50 [2, 11]: < 0.003 ng/mL | CC50 at 72 h [3]: < 0.003 ng/mL | LTS (long term survivors at 60 days) ([4]; 0.25 mg/Kg i.p. day 1): 0/11 | T/C % (median survival time, % over untreated controls) ([4]; 0.25 mg/Kg i.p. day 1): 155% | Toxic deaths ([4]; 0.25 mg/Kg i.p. day 1): 0/11 | LTS (long term survivors at 60 days) ([4]; 0.5 mg/Kg i.p. day 1): 2/11 | T/C % (median survival time, % over untreated controls) ([4]; 0.5 mg/Kg i.p. day 1): 166% | Toxic deaths ([4]; 0.5 mg/Kg i.p. day 1): 0/11 | LTS (long term survivors at 60 days) ([4]; 1 mg/Kg i.p. day 1): 0/11 | T/C % (median survival time, % over untreated controls) ([4]; 1 mg/Kg i.p. day 1): 133% | Toxic deaths ([4]; 1 mg/Kg i.p. day 1): 11/11 | antitumor activity at the optimal (non-toxic) dose vs adriamycin ([4]; L 1210): comparable to that of adriamycin | LTS (long term survivors at 60 days) ([5]; 0.25 mg/Kg i.p. day 1): 0/10 | T/C % (median survival time, % over untreated controls) ([5]; 0.25 mg/Kg i.p. day 1): 143% | Toxic deaths ([5]; 0.25 mg/Kg i.p. day 1): 0/10 | LTS (long term survivors at 60 days) ([5]; 0.5 mg/Kg i.p. day 1): 1/10 | T/C % (median survival time, % over untreated controls) ([5]; 0.5 mg/Kg i.p. day 1): 162% | Toxic deaths ([5]; 0.5 mg/Kg i.p. day 1): 1/10 | LTS (long term survivors at 60 days) ([5]; 1 mg/Kg i.p. day 1): 0/10 | T/C % (median survival time, % over untreated controls) ([5]; 1 mg/Kg i.p. day 1): 162% | Toxic deaths ([5]; 1 mg/Kg i.p. day 1): 8/10 | antitumor activity at the optimal (non-toxic) dose vs adriamycin ([5]; P 388): comparable to that of adriamycin | T/C % (tumor weight on day 11, % over untreated controls) ([6]; 0.06 mg/Kg i.v. days 1 to 5): 87.3% | Toxic deaths ([6]; 0.06 mg/Kg i.v. days 1 to 5): 0/10 | T/C % (tumor weight on day 11, % over untreated controls) ([6]; 0.12 mg/Kg i.v. days 1 to 5): 85.1% | Toxic deaths ([6]; 0.12 mg/Kg i.v. days 1 to 5): 2/16 | T/C % (tumor weight on day 11, % over untreated controls) ([6]; 0.25 mg/Kg i.v. days 1 to 5): 41.9% | Toxic deaths ([6]; 0.25 mg/Kg i.v. days 1 to 5): 4/19 | Toxic deaths ([6]; 0.5 mg/Kg i.v. days 1 to 5): 9/9 | inhibition of tumor growth on the eleventh day vs adriamycin ([6]; equitoxic doses): slightly lower than that of adriamycin | LTS (long term survivors) ([7]; 0.35 mg/Kg i.v. days 1 to 3): 2/20 | T/C % (median survival time, % over untreated controls) ([7]; 0.35 mg/Kg i.v. days 1 to 3): 153% | Toxic deaths ([7]; 0.35 mg/Kg i.v. days 1 to 3): 0/10 | LTS (long term survivors) ([7]; 0.45 mg/Kg i.v. days 1 to 3): 0/20 | T/C % (median survival time, % over untreated controls) ([7]; 0.45 mg/Kg i.v. days 1 to 3): 196% | Toxic deaths ([7]; 0.45 mg/Kg i.v. days 1 to 3): 0/20 | LTS (long term survivors) ([7]; 0.55 mg/Kg i.v. days 1 to 3): 0/10 | T/C % (median survival time, % over untreated controls) ([7]; 0.55 mg/Kg i.v. days 1 to 3): 186% | Toxic deaths ([7]; 0.55 mg/Kg i.v. days 1 to 3): 0/10 | LTS (long term survivors) ([7]; 0.6 mg/Kg i.v. days 1 to 3): 0/10 | T/C % (median survival time, % over untreated controls) ([7]; 0.6 mg/Kg i.v. days 1 to 3): 214% | Toxic deaths ([7]; 0.6 mg/Kg i.v. days 1 to 3): 1/10 | LTS (long term survivors) ([7]; 0.65 mg/Kg i.v. days 1 to 3): 0/10 | T/C % (median survival time, % over untreated controls) ([7]; 0.65 mg/Kg i.v. days 1 to 3): 207% | Toxic deaths ([7]; 0.65 mg/Kg i.v. days 1 to 3): 0/10 | increase in life span vs adriamycin ([7]; equitoxic doses): similar | in vitro activity compared with adriamycin [8]: definitely more active than adriamycin | antitumor activity ([9]; all the systems tested): remarkable antitumor activity; also recorded: higher antitumor activity in mice, similar to adriamycin | factor by which active doses are lower than those of adriamycin ([9]; mice): 10 times

COc1cccc2c1C(=O)c1c(O)c3c(c(O)c1C2=O)C[C@@](O)(C(=O)CO)C[C@@H]3O[C@H]1C[C@H](N)[C@H](O)[C@H](C)O1 [Adriamycin, adriamycin]
IC50 ([1]; read-out: ID50, cloning efficiency of Hela cells, 8 (hours) treatment, Table 6): 28 ng/mL (≈ 51.5 nM) | IC50 ([1]; read-out: ID50, cloning efficiency of Hela cells, 24 (hours) treatment, Table 6): 12.5 ng/mL (≈ 23 nM) | IC50 [2, 11]: 0.01 ng/mL (≈ 0.0184 nM) | CC50 at 72 h ([3]; 72 (hours) treatment, Table 6, read-out: ID50, inhibition of mouse embryo fibroblasts proliferation): 0.026 ng/mL (≈ 0.0478 nM) | LTS (long term survivors) [10]: 1/10 | T/C % (average survival time, % of untreated) [10]: 250% | LTS (long term survivors at 60 days) ([4]; 2.5 mg/Kg i.p. day 1): 4/11 | T/C % (median survival time, % over untreated controls) ([4]; 2.5 mg/Kg i.p. day 1): 155% | Toxic deaths ([4]; 2.5 mg/Kg i.p. day 1): 0/11 | LTS (long term survivors at 60 days) ([4]; 5 mg/Kg i.p. day 1): 1/11 | T/C % (median survival time, % over untreated controls) ([4]; 5 mg/Kg i.p. day 1): 166% | Toxic deaths ([4]; 5 mg/Kg i.p. day 1): 1/11 | LTS (long term survivors at 60 days) ([4]; 10 mg/Kg i.p. day 1): 3/11 | T/C % (median survival time, % over untreated controls) ([4]; 10 mg/Kg i.p. day 1): 155% | Toxic deaths ([4]; 10 mg/Kg i.p. day 1): 7/11 | LTS (long term survivors at 60 days) ([5]; 2.5 mg/Kg i.p. day 1): 0/10 | T/C % (median survival time, % over untreated controls) ([5]; 2.5 mg/Kg i.p. day 1): 150% | Toxic deaths ([5]; 2.5 mg/Kg i.p. day 1): 0/10 | LTS (long term survivors at 60 days) ([5]; 5 mg/Kg i.p. day 1): 0/10 | T/C % (median survival time, % over untreated controls) ([5]; 5 mg/Kg i.p. day 1): 162% | Toxic deaths ([5]; 5 mg/Kg i.p. day 1): 0/10 | LTS (long term survivors at 60 days) ([5]; 10 mg/Kg i.p. day 1): 1/10 | T/C % (median survival time, % over untreated controls) ([5]; 10 mg/Kg i.p. day 1): 200% | Toxic deaths ([5]; 10 mg/Kg i.p. day 1): 0/10 | T/C % (tumor weight on day 11, % over untreated controls) ([6]; 2 mg/Kg i.v. days 1 to 5): 22.2% | Toxic deaths ([6]; 2 mg/Kg i.v. days 1 to 5): 3/19 | T/C % (tumor weight on day 11, % over untreated controls) ([6]; 2.5 mg/Kg i.v. days 1 to 5): 13.5% | Toxic deaths ([6]; 2.5 mg/Kg i.v. days 1 to 5): 11/18 | LTS (long term survivors) ([7]; 3.5 mg/Kg i.v. days 1 to 3): 0/20 | T/C % (median survival time, % over untreated controls) ([7]; 3.5 mg/Kg i.v. days 1 to 3): 164% | Toxic deaths ([7]; 3.5 mg/Kg i.v. days 1 to 3): 0/20 | LTS (long term survivors) ([7]; 4.5 mg/Kg i.v. days 1 to 3): 0/20 | T/C % (median survival time, % over untreated controls) ([7]; 4.5 mg/Kg i.v. days 1 to 3): 182% | Toxic deaths ([7]; 4.5 mg/Kg i.v. days 1 to 3): 0/20 | LTS (long term survivors) ([7]; 5.5 mg/Kg i.v. days 1 to 3): 1/10 | T/C % (median survival time, % over untreated controls) ([7]; 5.5 mg/Kg i.v. days 1 to 3): 200% | Toxic deaths ([7]; 5.5 mg/Kg i.v. days 1 to 3): 1/10 | LTS (long term survivors) ([7]; 6 mg/Kg i.v. days 1 to 3): 0/10 | T/C % (median survival time, % over untreated controls) ([7]; 6 mg/Kg i.v. days 1 to 3): 214% | Toxic deaths ([7]; 6 mg/Kg i.v. days 1 to 3): 3/10

COc1cccc2c1C(=O)c1c(O)c3c(c(O)c1C2=O)C[C@@](O)(C(C)=O)C[C@@H]3O[C@H]1C[C@H](N)[C@H](O)[C@H](C)O1 [Daunomycin]
IC50 ([1]; 2 h, read-out: ID50 (action on Hela cells), 2 hours treatment, Table 1): 17000 ng/mL (≈ 32200 nM) | IC50 ([1]; 8 h, read-out: ID50 (action on Hela cells), 8 hours treatment, Table 1): 8500 ng/mL (≈ 16100 nM) | IC50 ([1]; 24 h, read-out: ID50 (action on Hela cells), 24 hours treatment, Table 1): 6800 ng/mL (≈ 12900 nM) | IC50 ([2]; read-out: Antiviral action ID50): 3 ng/mL (≈ 5.69 nM) | CC50 at 72 h ([3]; uninfected MEF, three days treatment, Table 2, read-out: Cytotoxic action ID50): 16 ng/mL (≈ 30.3 nM)
